This note sets out measurements from ChEMBL document CHEMBL1151909, “Mechanism of action of N-phenyl-N'-(2-chloroethyl)ureas in the colchicine-binding site at the interface between alpha- and beta-tubulin” (2009).

The subject of this test is HT-29. Nature of the test: Antiproliferative activity against human HT-29 cells after 48 hrs by SRB assay. It is filed as functional. Particulars: HT-29, 48 h. (In general: The SRB assay estimates cell density from bound dye.)
Usually GI50 stands for the concentration at which growth is held to half of that of the control. High values mean less potent growth inhibition, low ones more potent growth inhibition. `CCCCCc1cccc(NC(=O)NCCCl)c1` yielded a GI50 of 620 nM.
In turn, `COCCCCCc1cccc(NC(=O)NCCCl)c1` returned a GI50 of 840 nM.
`COc1ccc(CCc2cccc(NC(=O)NCCCl)c2)cc1O` came in with a GI50 of 9600 nM.
Take `COc1ccc(/C=C\c2ccc(NC(=O)NCCCl)cc2)cc1O`: the GI50 turned out to be 2400 nM.
In the case of `CC(=O)CCCCc1cccc(NC(=O)NCCCl)c1` it was 600 nM; in that of `O=C(NCCCl)Nc1cccc(CCCCCO)c1`, 160 nM.
As for `O=C(NCCCl)Nc1cccc(CCCCCCO)c1`, growth was halved (GI50) at 300 nM.
`O=C(NCCCl)Nc1cccc(CCCCO)c1`: the GI50 was found to be 710 nM.
